Laboratory results reported in ChEMBL document CHEMBL2169871, “SIRT1 modulation as a novel approach to the treatment of diseases of aging” (J Med Chem, 2011).

Legend:
[1] = target: T1, NAD-dependent protein deacetylase sirtuin-1 (Homo sapiens, UniProt Q96EB6); test: Activation of SIRT1
T1 sequence (Q96EB6 whole entry): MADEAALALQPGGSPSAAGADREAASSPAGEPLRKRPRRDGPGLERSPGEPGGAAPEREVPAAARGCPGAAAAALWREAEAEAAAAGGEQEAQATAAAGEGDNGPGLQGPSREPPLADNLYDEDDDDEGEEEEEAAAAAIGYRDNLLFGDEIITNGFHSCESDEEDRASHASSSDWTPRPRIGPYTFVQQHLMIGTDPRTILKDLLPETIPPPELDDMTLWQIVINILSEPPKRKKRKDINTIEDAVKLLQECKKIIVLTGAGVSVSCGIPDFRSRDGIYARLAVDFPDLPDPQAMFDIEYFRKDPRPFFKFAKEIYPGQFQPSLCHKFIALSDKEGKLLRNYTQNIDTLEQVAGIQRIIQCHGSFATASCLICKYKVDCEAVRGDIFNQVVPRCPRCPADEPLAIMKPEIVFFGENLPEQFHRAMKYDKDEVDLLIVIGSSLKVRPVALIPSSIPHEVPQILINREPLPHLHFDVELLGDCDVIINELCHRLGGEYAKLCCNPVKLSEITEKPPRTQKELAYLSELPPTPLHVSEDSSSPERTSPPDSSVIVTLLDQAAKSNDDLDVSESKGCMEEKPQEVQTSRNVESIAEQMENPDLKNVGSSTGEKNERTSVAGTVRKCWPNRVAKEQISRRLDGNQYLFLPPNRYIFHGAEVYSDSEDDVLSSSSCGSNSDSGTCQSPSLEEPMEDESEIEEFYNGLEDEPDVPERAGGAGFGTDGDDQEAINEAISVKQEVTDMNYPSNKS

[2] = target: T2, NAD-dependent protein deacetylase sirtuin-1 (Homo sapiens) (UniProt Q96EB6); test: Activation of SIRT1 relative to control
T2 sequence (whole entry): T1 sequence (Q96EB6 whole entry)

[3] = target: T1, NAD-dependent protein deacetylase sirtuin-1; test: Inhibition of SIRT1
[4] = target: T3, NAD-dependent protein deacetylase sirtuin-2 (Homo sapiens, UniProt Q8IXJ6); test: Inhibition of SIRT2
T3 sequence (Q8IXJ6 whole entry): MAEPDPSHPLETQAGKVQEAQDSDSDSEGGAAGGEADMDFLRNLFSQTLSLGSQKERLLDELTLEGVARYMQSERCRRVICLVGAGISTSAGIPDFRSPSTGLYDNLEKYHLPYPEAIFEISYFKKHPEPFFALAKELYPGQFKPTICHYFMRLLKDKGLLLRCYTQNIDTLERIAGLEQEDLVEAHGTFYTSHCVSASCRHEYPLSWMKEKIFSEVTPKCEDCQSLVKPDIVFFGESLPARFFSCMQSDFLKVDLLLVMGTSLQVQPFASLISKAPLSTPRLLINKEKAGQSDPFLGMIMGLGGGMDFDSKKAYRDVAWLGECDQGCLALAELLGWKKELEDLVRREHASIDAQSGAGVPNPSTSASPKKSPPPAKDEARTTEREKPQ

[5] = target: T4, NAD-dependent protein deacetylase sirtuin-3, mitochondrial (Homo sapiens, UniProt Q9NTG7); test: Inhibition of SIRT3
T4 sequence (Q9NTG7 whole entry): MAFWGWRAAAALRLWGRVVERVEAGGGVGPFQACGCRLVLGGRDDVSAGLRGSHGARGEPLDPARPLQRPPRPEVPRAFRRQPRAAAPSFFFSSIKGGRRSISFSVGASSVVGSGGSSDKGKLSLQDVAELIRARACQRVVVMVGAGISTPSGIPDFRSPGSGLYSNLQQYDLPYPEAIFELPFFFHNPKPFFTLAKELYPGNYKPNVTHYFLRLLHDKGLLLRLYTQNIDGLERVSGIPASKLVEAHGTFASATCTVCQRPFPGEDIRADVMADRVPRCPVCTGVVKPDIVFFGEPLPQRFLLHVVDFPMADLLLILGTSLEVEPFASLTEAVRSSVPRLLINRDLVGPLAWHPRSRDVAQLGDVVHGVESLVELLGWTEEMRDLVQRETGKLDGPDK

Mus musculus [6] = test: Increase of SIRT1 mRNA expression in mouse brain at 12.5 mg/kg qd for 7 days by RT-PCR analysis; type: functional
Mus musculus [7] = test: Increase of SIRT1 mRNA expression in mouse soleus muscle at 12.5 to 25 mg/kg qd for 7 days by RT-PCR analysis; type: functional; settings: dose mg/kg 12.5-25
Mus musculus [8] = test: Increase of SIRT1 mRNA expression in mouse brain at 25 mg/kg qd for 7 days by RT-PCR analysis; type: functional
[9] = Half life in mouse; type: ADME, organism-based; settings: in vivo

SMILES	EC50 [1] [µM]	Emax [2] [%]	IC50 [3] [µM]	also measured
COc1ccc(C(=O)Nc2cccc(-c3nc4ncccc4o3)c2)cc1OC	6	240		
CN(C)c1cccc(C(=O)Nc2ccccc2-c2nc3ncccc3o2)c1	4.4	209		
CCOC(=O)CC(=O)NCCCC[C@H](NC(=O)OCc1ccccc1)C(=O)Nc1ccccc1			4	IC50 [4]: 65 µM; IC50 [5]: > 300 µM
O=C(Nc1ccccc1-c1nc2cccnc2s1)c1cc(NC[C@@H](O)CO)nc(-c2ccccc2)n1	< 0.25			
O=c1[nH]c(=S)[nH]c(-c2ccc(Br)cc2)c1Cc1c(O)ccc2ccccc12			13	
O=c1c(O)c(-c2ccc(O)c(O)c2)oc2cc(O)cc(O)c12 [QUERCETIN]				Activity (Mus musculus [6]): 50%; Activity (Mus musculus [7]): 200%; Activity (Mus musculus [8]): 100%
O=C1c2cccc3cccc(c23)C(=O)N1CCNCCCNCCCNCCN1C(=O)c2cccc3cccc(c23)C1=O			43	
NC(=O)c1ccccc1Nc1ccccc1 [ANILINOBENZAMIDE]			17	
O=C(Nc1ccccc1-c1nc2ccccc2[nH]1)c1cnc2ccccc2n1	0.3	253		
O=C1NC(=S)NC(=O)C1=Cc1cc2ccccc2[nH]1			6	IC50 [4]: 20 µM
CN(C)c1cccc(C(=O)Nc2cccc(-c3nc4ncccc4o3)c2)c1	25	207		
Cc1ccc(C(=O)Nc2ccc(S(=O)(=O)O)c3cc(S(=O)(=O)O)cc(S(=O)(=O)O)c23)cc1NC(=O)c1cccc(NC(=O)Nc2cccc(C(=O)Nc3cc(C(=O)Nc4ccc(S(=O)(=O)O)c5cc(S(=O)(=O)O)cc(S(=O)(=O)O)c45)ccc3C)c2)c1 [SURAMIN HEXASODIUM]				IC50 [4]: 1.2 µM
O=C1NC(=S)NC(=O)C1=Cc1cccc2ccccc12			13	IC50 [4]: 9 µM
CC(=S)NCCCC[C@H](NC(=O)OCc1ccccc1)C(=O)Nc1ccccc1				IC50 [5]: > 100 µM
O=C(Nc1nccs1)c1cccc2[nH]c(-c3cccc(C(F)(F)F)c3)nc12	< 1	> 200		
O=C(Nc1ccc(CN2CCNCC2)cc1-c1nc2ccccc2[nH]1)c1cnc2ccccc2n1	0.4	820		
O=C(Nc1ccccc1-c1nc2cccnc2s1)c1cc(N2CCNCC2)nc(-c2ccccc2)n1	< 0.25			
O=C1Nc2c(ccc(Cl)c2Cl)/C1=C/c1cc(Br)c(O)c(Br)c1			40	IC50 [4]: 28 µM
O=C(Nc1ccccc1-c1nc2cccnc2s1)c1cc(N2CCOCC2)nc(-c2ccccc2)n1	< 0.25			
NC(=O)C1CCCc2c1[nH]c1ccc(Cl)cc21 (configuration not stated)				half-life [9]: 3.23 h
COc1ccc(C(=O)Nc2ccccc2-c2nc3ncccc3o2)cc1OC	0.9	170		
Cc1ccc2[nH]c(=O)c(C=C3C(=O)NC(=S)NC3=O)cc2c1			13	IC50 [4]: 11 µM
